In patent US8106055B2, “Substituted amide compounds” (Gruenenthal GmbH, priority 2007, dated 2012) one finds inhibition data, which are given here for 17 compounds.

The target of test [1] is T1, human bradykinin 1 receptor (B1R) (Homo sapiens, UniProt P46663).
T1 construct: expressed in transfected cells; host or cells: CHO K1 cells
T1 sequence (P46663 1-353): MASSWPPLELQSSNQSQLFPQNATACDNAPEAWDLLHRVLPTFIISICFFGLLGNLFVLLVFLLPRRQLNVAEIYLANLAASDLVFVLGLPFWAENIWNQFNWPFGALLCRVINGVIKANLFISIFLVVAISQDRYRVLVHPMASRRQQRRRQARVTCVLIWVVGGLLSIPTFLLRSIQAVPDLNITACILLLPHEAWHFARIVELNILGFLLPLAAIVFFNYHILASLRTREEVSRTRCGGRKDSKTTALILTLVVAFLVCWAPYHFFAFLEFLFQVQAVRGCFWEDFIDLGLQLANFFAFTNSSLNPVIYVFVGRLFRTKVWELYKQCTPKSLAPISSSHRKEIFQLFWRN
As to the kind of experiment: Functional investigation on the human bradykinin 1 receptor (B1R), Ca2+ FLIPR assay in CHO K1 hB1R cells. In kind it is cell-based. The note with it: CHO-K1, B1R antagonism human, test substance 10 μM, read-out: B1R Ant. h [10 μM] % Inhibition. Summed up: (§1)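 Peak Ca2+-dependent fluorescence in B1R-transfected CHO K1 cells measures antagonism of an EC80 agonist challenge given 10-20 min after compound. Agonist is Lys-Des-Arg9-bradykinin for human, Des-Arg9-bradykinin for rat receptor.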

The target in test [2] is T2, bradykinin 1 receptor (B1R) of the rat (Rattus norvegicus, UniProt P97583).
T2 construct: expressed in transfected cells; host or cells: CHO K1 cells
T2 sequence (P97583 1-337): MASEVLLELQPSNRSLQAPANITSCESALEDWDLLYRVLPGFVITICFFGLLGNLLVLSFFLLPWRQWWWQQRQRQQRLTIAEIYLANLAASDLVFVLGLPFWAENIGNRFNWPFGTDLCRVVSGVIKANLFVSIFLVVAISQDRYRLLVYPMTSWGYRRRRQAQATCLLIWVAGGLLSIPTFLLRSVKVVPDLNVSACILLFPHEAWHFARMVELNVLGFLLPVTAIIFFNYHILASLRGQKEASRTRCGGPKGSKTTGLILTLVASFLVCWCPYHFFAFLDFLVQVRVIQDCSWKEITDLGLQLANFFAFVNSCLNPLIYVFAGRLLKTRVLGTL
As to the kind of experiment: Functional investigation on the rat bradykinin 1 receptor (B1R), Ca2+ FLIPR assay in CHO K1 rB1R cells. In kind it is cell-based. The note with it: CHO-K1, B1R antagonism rat, test substance 10 μM, read-out: B1R Ant. r [10 μM] % Inhibition. The method in brief:
as §1

Test [3] deals with T3, human μ opiate receptor (Homo sapiens, UniProt P35372).
T3 construct: purchased PerkinElmer Life Sciences, Zaventem, Belgium RB-HOM; host or cells: CHO-K1 cells (membrane preparation)
T3 sequence (P35372 whole entry): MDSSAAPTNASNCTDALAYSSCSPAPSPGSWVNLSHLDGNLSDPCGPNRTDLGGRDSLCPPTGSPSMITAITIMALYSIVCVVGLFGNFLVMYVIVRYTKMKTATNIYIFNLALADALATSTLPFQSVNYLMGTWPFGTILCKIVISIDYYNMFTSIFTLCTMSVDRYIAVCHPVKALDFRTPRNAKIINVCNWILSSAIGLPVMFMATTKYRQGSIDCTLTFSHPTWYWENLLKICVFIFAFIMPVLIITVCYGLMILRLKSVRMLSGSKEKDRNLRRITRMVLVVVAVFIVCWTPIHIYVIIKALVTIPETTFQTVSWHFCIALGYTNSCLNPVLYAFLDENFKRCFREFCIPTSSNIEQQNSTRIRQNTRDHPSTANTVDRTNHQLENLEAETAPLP
Put plainly: Affinity for the human μ opiate receptor ([3H]-naloxone displacement, CHO-K1 receptor membrane preparation, SPA). In kind it is binding. The note with it: 1.5 h, Table 3, to be read in the same way as Table 1; test concentration 1 μM; read-out: μ. Summed up: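 At 1 μmol/l, compounds were scored for % displacement of 1 nmol/l [3H]-naloxone from CHO-K1-expressed human μ opiate receptor in a homogeneous SPA format (90 min, room temperature).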

Setting [4] is: % inhibition compared with the maximum achievable inhibition.

The structures appear in SMILES notation. Like-named read-outs stand apart in the source and are kept apart here.

Take `COc1cc(C)c(S(=O)(=O)N2CCCC(OCC(=O)NC3CCC(C(c4ccccc4)N4CCCC4)CC3)C2)c(C)c1` (stereo not drawn) [Example 647, 2-(1-(4-methoxy-2,6-dimethylphenylsulfonyl)piperidin-3-yloxy)-N-(4-(phenyl(pyrrolidin-1-yl)methyl)cyclohexyl)acetamide]: the inhibition at 10 µM in test [1] (Ca2+ FLIPR, CHO K1 hB1R cells) turned out to be 92%; in test [2] (Ca2+ FLIPR, CHO K1 rB1R cells), 94%. The inhibition at 1 µM in test [3] came out at 49%.

`O=C(COCC1CCCN1S(=O)(=O)c1c(Cl)cc(Cl)cc1Cl)NCC1CCC(C(c2ccccc2)N2CCOCC2)CC1` (stereo not drawn) [Example 710, N-((4-(morpholino(phenyl)methyl)cyclohexyl)methyl)-2-((1-(2,4,6-trichlorophenylsulfonyl)pyrrolidin-2-yl)methoxy)acetamide]: the inhibition at 10 µM was 42% in test [1] (Ca2+ FLIPR, CHO K1 hB1R cells) and 92% in test [2] (Ca2+ FLIPR, CHO K1 rB1R cells). For the same compound, the inhibition at 1 µM in test [3] worked out at 24%.

For `COc1cc(C)c(S(=O)(=O)N2CCCC2COCC(=O)NC2CCC(C(c3ccccc3)N3CCOCC3)CC2)c(C)c1` (stereo not drawn) [Example 694, 2-((1-(4-methoxy-2,6-dimethylphenylsulfonyl)pyrrolidin-2-yl)methoxy)-N-(4-(morpholino(phenyl)methyl)cyclohexyl)acetamide], the inhibition at 10 µM came out at 54% in test [1] (Ca2+ FLIPR, CHO K1 hB1R cells) and 104% in test [2] (Ca2+ FLIPR, CHO K1 rB1R cells). In addition, in test [3], the inhibition at 1 µM stood at 10%.

Turning to `CN(CCOCC(=O)NCC1CCC(C(c2ccccc2)N2CCOCC2)CC1)S(=O)(=O)c1c(Cl)cccc1Cl` (stereo not drawn) [Example 706, 2-(2-(2,6-dichloro-N-methylphenylsulfonamido)ethoxy)-N-((4-(morpholino(phenyl)methyl)cyclohexyl)methyl)acetamide], the inhibition at 10 µM in test [1] (Ca2+ FLIPR, CHO K1 hB1R cells) came to 77%; in test [2] (Ca2+ FLIPR, CHO K1 rB1R cells), 52%. In addition, the inhibition at 1 µM in test [3] came out at 7%.

On to `O=C(COCC1CCCN(S(=O)(=O)c2c(Cl)cc(Cl)cc2Cl)C1)NCC1CCC(C(CCc2ccccc2)N2CCOCC2)CC1` (stereo not drawn) [Example 758, N-((4-(1-morpholino-3-phenylpropyl)cyclohexyl)methyl)-2-((1-(2,4,6-trichlorophenylsulfonyl)piperidin-3-yl)methoxy)acetamide], for which the inhibition at 10 µM in test [1] (Ca2+ FLIPR, CHO K1 hB1R cells) is 41%; in test [2] (Ca2+ FLIPR, CHO K1 rB1R cells), 107%. Besides, the inhibition at 1 µM in test [3] was found to be 25%.

On to `O=C(COC1CCCN(S(=O)(=O)c2c(Cl)cc(Cl)cc2Cl)C1)NCC1CCC(C(c2ccccc2)N2CCOCC2)CC1` (stereo not drawn) [Example 707, N-((4-(morpholino(phenyl)methyl)cyclohexyl)methyl)-2-(1-(2,4,6-trichlorophenylsulfonyl)piperidin-3-yloxy)acetamide], for which the inhibition at 10 µM was determined as 2% in test [1] (Ca2+ FLIPR, CHO K1 hB1R cells) and 25% in test [2] (Ca2+ FLIPR, CHO K1 rB1R cells). Moreover, the inhibition at 1 µM in test [3] is 28%.

Take `COc1cc(C)c(S(=O)(=O)N2CCCC(COCC(=O)NCC3CCC(C(CCc4ccccc4)N4CCCC4)CC3)C2)c(C)c1` (stereo not drawn) [Example 757, 2-((1-(4-methoxy-2,6-dimethylphenylsulfonyl)piperidin-3-yl)methoxy)-N-((4-(3-phenyl-1-(pyrrolidin-1-yl)propyl)cyclohexyl)methyl)acetamide]: the inhibition at 10 µM in test [1] (Ca2+ FLIPR, CHO K1 hB1R cells) came out at 103%; in test [2] (Ca2+ FLIPR, CHO K1 rB1R cells) it was 100%. The inhibition at 1 µM in test [3] turned out to be 32%.

Regarding `CN1CCN(C(c2ccccc2)C2CCN(C(=O)COCC3CCc4ccccc4N3S(=O)(=O)c3ccc(Cl)c(Cl)c3)CC2)CC1` (stereo not drawn) [Example 810, 2-((1-(3,4-dichlorophenylsulfonyl)-1,2,3,4-tetrahydroquinolin-2-yl)methoxy)-1-(4-((4-methylpiperazin-1-yl)(phenyl)methyl)piperidin-1-yl)ethanone], the inhibition at 10 µM in test [1] (setting [4]) amounted to 102%; in test [2] (setting [4]), 97%. For the same compound, the inhibition at 1 µM in test [3] came out at 19%.

For the compound `O=C(COCC1CCCCN1S(=O)(=O)c1c(Cl)cc(Cl)cc1Cl)NC1CCC(C(CCc2ccccc2)N2CCOCC2)CC1` (stereo not drawn) [Example 737, N-(4-(1-morpholino-3-phenylpropyl)cyclohexyl)-2-((1-(2,4,6-trichlorophenylsulfonyl)piperidin-2-yl)methoxy)acetamide], the inhibition at 10 µM in test [1] (Ca2+ FLIPR, CHO K1 hB1R cells) was 23%; in test [2] (Ca2+ FLIPR, CHO K1 rB1R cells), 56%. In test [3], the inhibition at 1 µM worked out at 22%.

For `COc1cc(C)c(S(=O)(=O)N(C)CCOCC(=O)NC2CCC(C(c3ccccc3)N3CCOCC3)CC2)c(C)c1` (stereo not drawn) [Example 681, 2-(2-(4-methoxy-N,2,6-trimethylphenylsulfonamido)ethoxy)-N-(4-(morpholino(phenyl)methyl)cyclohexyl)acetamide], the inhibition at 10 µM came out at 98% in test [1] (Ca2+ FLIPR, CHO K1 hB1R cells) and 98% in test [2] (Ca2+ FLIPR, CHO K1 rB1R cells). Also, the inhibition at 1 µM in test [3] was 10%.

Take `COc1cc(C)c(S(=O)(=O)N(C)CCOCC(=O)N2CCC(C(c3ccc(F)cc3)N3CCN(C)CC3)CC2)c(C)c1` (stereo not drawn) [Example 804, N-(2-(2-(4-((4-fluorophenyl)(4-methylpiperazin-1-yl)methyl)piperidin-1-yl)-2-oxoethoxy)ethyl)-4-methoxy-N,2,6-trimethylbenzenesulfonamide]: the inhibition at 10 µM in test [1] (setting [4]) was found to be 105%; in test [2] (setting [4]), 100%. Further, the inhibition at 1 µM in test [3] stood at 9%.

On to `COc1cc(C)c(S(=O)(=O)N2CCCC2COCC(=O)NC2CCC(C(CCc3ccccc3)N3CCCCC3)CC2)c(C)c1` (stereo not drawn) [Example 677, 2-((1-(4-methoxy-2,6-dimethylphenylsulfonyl)pyrrolidin-2-yl)methoxy)-N-(4-(3-phenyl-1-(piperidin-1-yl)propyl)cyclohexyl)acetamide], for which the inhibition at 10 µM is 104% in test [1] (Ca2+ FLIPR, CHO K1 hB1R cells) and 107% in test [2] (Ca2+ FLIPR, CHO K1 rB1R cells). In test [3], the inhibition at 1 µM stood at 60%.

Consider `O=C(COCC1CCCN(S(=O)(=O)c2c(Cl)cc(Cl)cc2Cl)C1)NCC1CCC(C(c2ccccc2)N2CCCC2)CC1` (stereo not drawn) [Example 659, N-((4-(phenyl(pyrrolidin-1-yl)methyl)cyclohexyl)methyl)-2-((1-(2,4,6-trichlorophenylsulfonyl)piperidin-3-yl)methoxy)acetamide], for which the inhibition at 10 µM in test [1] (Ca2+ FLIPR, CHO K1 hB1R cells) stood at 50%; in test [2] (Ca2+ FLIPR, CHO K1 rB1R cells) it was 100%. In addition, the inhibition at 1 µM in test [3] stood at 79%.

With `CN(CCOCC(=O)NC1CCC(C(CCc2ccccc2)N2CCOCC2)CC1)S(=O)(=O)c1ccc(Cl)cc1Cl` (stereo not drawn) [Example 660, 2-(2-(2,4-dichloro-N-methylphenylsulfonamido)ethoxy)-N-(4-(1-morpholino-3-phenylpropyl)cyclohexyl)acetamide], the inhibition at 10 µM in test [1] (Ca2+ FLIPR, CHO K1 hB1R cells) turned out to be 30%; in test [2] (Ca2+ FLIPR, CHO K1 rB1R cells) it was 12%. Besides, the inhibition at 1 µM in test [3] amounted to 4%.

In the case of `COc1cc(C)c(S(=O)(=O)N2CCCCC2COCC(=O)N2CCC(C(c3ccc(F)cc3)N3CCN(C)CC3)CC2)c(C)c1` (stereo not drawn) [Example 805, 1-(4-((4-fluorophenyl)(4-methylpiperazin-1-yl)methyl)piperidin-1-yl)-2-((1-(4-methoxy-2,6-dimethylphenylsulfonyl)piperidin-2-yl)methoxy)ethanone], the inhibition at 10 µM was found to be 103% in test [1] (setting [4]) and 99% in test [2] (setting [4]). Also, the inhibition at 1 µM in test [3] is 4%.

Regarding `O=C(COC1CCCN(S(=O)(=O)c2c(Cl)cc(Cl)cc2Cl)C1)NC1CCC(C(c2ccccc2)N2CCOCC2)CC1` (stereo not drawn) [Example 691, N-(4-(morpholino(phenyl)methyl)cyclohexyl)-2-(1-(2,4,6-trichlorophenylsulfonyl)piperidin-3-yloxy)acetamide], the inhibition at 10 µM in test [1] (Ca2+ FLIPR, CHO K1 hB1R cells) is 10%; in test [2] (Ca2+ FLIPR, CHO K1 rB1R cells), 6%. In addition, the inhibition at 1 µM in test [3] was 58%.

In the case of `O=C(COC1CCN(S(=O)(=O)c2c(Cl)cc(Cl)cc2Cl)C1)NC1CCC(C(CCc2ccccc2)N2CCCCC2)CC1` (stereo not drawn) [Example 667, N-(4-(3-phenyl-1-(piperidin-1-yl)propyl)cyclohexyl)-2-(1-(2,4,6-trichlorophenylsulfonyl)pyrrolidin-3-yloxy)acetamide], the inhibition at 10 µM in test [1] (Ca2+ FLIPR, CHO K1 hB1R cells) came to 57%; in test [2] (Ca2+ FLIPR, CHO K1 rB1R cells) it was 17%. Also, in test [3], the inhibition at 1 µM turned out to be 32%.
